These results are taken from patent publication US7750158B2, “Cannabinoid receptor ligands” (Schering Corporation, priority 2004, dated 2010).

Read-outs that look alike come from different tables or passages of the source.

Experiment [1] concerns the target T1, recombinant human cannabinoid CB2 receptor (Homo sapiens, UniProt P34972).
T1 construct: purchased Receptor Biology RB-HCB2
Briefly: [3H] CP-55,940 competition binding to recombinant cannabinoid receptor membranes (CB2). On the procedure: (§1) Potential cannabinoid receptor ligands were screened for the ability to compete with [^3H] CP-55,940, which is a known receptor ligand, for binding to recombinant cannabinoid receptors. Test compounds were serially diluted in Diluent Buffer (50 mM Tris pH 7.1, 1 mM EDTA, 3 mM MgCl2, 0.1% BSA, 10% DMSO, 0.36% methyl cellulose (Sigma M-6385)) from stocks prepared in 100% DMSO. Aliquots (10 μL) were transferred into 96-well microtiter plates. Membrane preparations of recombinant human cannabinoid CB2 receptor (Receptor Biology #RB-HCB2) or recombinant human cannabinoid CB1 receptor (Receptor Biology #RB-HCB1) were diluted to 0.3 mg/mL in Binding Buffer (50 mM Tris pH 7.2, 1 mM EDTA, 3 mM MgCl2, 0.1% BSA). Aliquots (50 μL) were added to each well of the microtiter plate. The binding reactions were initiated by addition of [^3H] CP-55,940 (New England Nuclear #NET 1051; specific activity=180 Ci/mmol) to each well of the microtiter plate. Each 100 μl reaction mixture contained 0.48 nM [^3H] CP-55,940, 15 μg membrane protein in binding buffer containing 1% DMSO and 0.036% methyl cellulose. Following incubation for 2 hours at room temperature, the reactions were filtered through 0.5% polyethylenimine-coated GF/C filter plates (UniFilter-96, Packard) with a TomTec Mark 3U Harvester (Hamden, Conn.). The filter plate was washed 5 times with binding buffer, rotated 180°, then re-washed 5 times with binding buffer. Bound radioactivity was quantitated following addition of 30 μl of Packard Microscint 20 scintillant in a Packard TopCount NXT microplate scintillation counter. Non-linear regression analysis of the resulting data was performed using Prism 2.0b (GraphPad, San Diego, Calif.).
The activities (potencies) for the compounds of the invention are determined by measuring their Ki values.

Experiment [2] addresses T2, recombinant human cannabinoid CB1 receptor (Homo sapiens, UniProt P21554).
T2 construct: purchased Receptor Biology RB-HCB1
The experiment in a line: [3H] CP-55,940 competition binding to recombinant cannabinoid receptor membranes (CB1), reported as the CB1/CB2 selection ratio. The conditions noted are these: Ki CB1 / Ki CB2, same binding assay. Here is the method: as §1

The mark [3] stands for this setting: 0.48 nM [3H] CP-55,940, 15 μg membrane protein, 2 hours at room temperature, read-out: Ki values (CB2 receptor).

A word on the Ki: it is the equilibrium dissociation constant of an inhibitor or competing ligand from its target.

T1 sequence (P34972 whole entry): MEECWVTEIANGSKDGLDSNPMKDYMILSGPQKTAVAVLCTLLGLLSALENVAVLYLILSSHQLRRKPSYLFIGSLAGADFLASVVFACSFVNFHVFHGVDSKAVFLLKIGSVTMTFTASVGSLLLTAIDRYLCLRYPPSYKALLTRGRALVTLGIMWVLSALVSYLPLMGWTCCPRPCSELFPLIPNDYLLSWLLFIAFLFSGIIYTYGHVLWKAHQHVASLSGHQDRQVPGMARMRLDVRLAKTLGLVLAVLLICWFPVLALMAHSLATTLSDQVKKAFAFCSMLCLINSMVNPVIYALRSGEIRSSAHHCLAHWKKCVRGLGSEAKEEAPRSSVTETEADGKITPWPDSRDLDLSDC
T2 sequence (P21554 whole entry): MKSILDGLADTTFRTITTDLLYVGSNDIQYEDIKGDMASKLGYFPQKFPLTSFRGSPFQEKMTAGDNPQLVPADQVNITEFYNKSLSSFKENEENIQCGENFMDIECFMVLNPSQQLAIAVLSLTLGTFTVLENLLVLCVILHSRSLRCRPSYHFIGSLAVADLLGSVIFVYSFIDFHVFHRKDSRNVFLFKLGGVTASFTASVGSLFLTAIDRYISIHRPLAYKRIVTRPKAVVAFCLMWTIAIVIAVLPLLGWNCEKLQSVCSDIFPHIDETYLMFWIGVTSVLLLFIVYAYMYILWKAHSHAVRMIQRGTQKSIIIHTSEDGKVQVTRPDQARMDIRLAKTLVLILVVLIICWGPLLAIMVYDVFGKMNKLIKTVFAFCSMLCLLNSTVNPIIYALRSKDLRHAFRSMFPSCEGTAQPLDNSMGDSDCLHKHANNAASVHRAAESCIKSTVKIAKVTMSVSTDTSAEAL

On to `CS(=O)(=O)NCC1CC2CCC(C1)N2S(=O)(=O)c1cc2ccccc2n1S(=O)(=O)c1ccccc1F` (stereo not shown) [compound 47], for which the Ki in experiment [1] was found to be 7 nM. Moreover, the “selection ratio of the Ki value of the CB1 receptor to that of the CB2 receptor” value (from here on “selection ratio”) in experiment [2] is listed as about 790.

As to `CCC1(CNS(=O)(=O)C(F)(F)F)CC2CCC(C1)N2S(=O)(=O)c1ccc(Cl)cc1S(=O)(=O)c1ccccn1` (stereo not shown) [compound 59], the Ki in experiment [1] amounted to 25.9 nM. The “selection ratio” value in experiment [2] is about 52.

As for `CS(=O)(=O)NCC1C2CN(S(=O)(=O)c3cc4ccccc4n3S(=O)(=O)c3ccccc3F)CC12` (stereo not shown) [compound 13], the inhibition constant Ki in experiment [1] (setting [3]) worked out at 1 nM. The “selection ratio” value in experiment [2] was about 3400.

On to `CCC1(CNCC(F)(F)F)CC2CCC(C1)N2S(=O)(=O)c1ccc(Cl)cc1S(=O)(=O)c1ccccn1` (stereo not shown) [compound 58], for which the inhibition constant (Ki) in experiment [1] stood at 41 nM. Moreover, the “selection ratio” value in experiment [2] was about 770.

`O=S(=O)(c1cc2cccnc2n1S(=O)(=O)c1ccccc1F)N1CC2C(CNS(=O)(=O)C(F)(F)F)C2C1` (stereo not shown) [compound 60]: the Ki in experiment [1] (setting [3]) stood at 3.3 nM. For the same compound, the “selection ratio” value in experiment [2] is on record as about 4100.

In the case of `O=S(=O)(c1ccccc1F)c1cc(Cl)ccc1S(=O)(=O)N1CC2C(CNS(=O)(=O)C(F)(F)F)C2C1` (stereo not shown) [compound 11], the Ki in experiment [1] (setting [3]) turned out to be 1.46 nM. In addition, the “selection ratio” value in experiment [2] is recorded as “about 1000”.

Turning to `O=S(=O)(c1ccccn1)c1cc(C(F)(F)F)ccc1S(=O)(=O)N1CCC2(CC1)CC2NS(=O)(=O)C(F)(F)F` (stereo not shown) [compound 31], the Ki in experiment [1] was 5 nM. In experiment [2], the “selection ratio” value is given as about 71.

On to `CS(=O)(=O)NC1CC12CCN(S(=O)(=O)c1cc3ccccc3n1S(=O)(=O)c1ccccc1F)CC2` (racemic) [compound 20], for which the Ki in experiment [1] (setting [3]) is 0.24 nM. Besides, the “selection ratio” value in experiment [2] was “about 15000”.

With `O=S(=O)(c1cc2ccccc2n1S(=O)(=O)c1ccccc1F)N1CCC2(CC1)C[C@@H]2NS(=O)(=O)C(F)(F)F` [compound 22], the inhibitory constant (Ki) in experiment [1] (setting [3]) came to 1 nM. Besides, the “selection ratio” value in experiment [2] is on record as about 400.

With `CC(C)n1c(S(=O)(=O)N2CC3C(CNC(=O)OC(C)(C)C)C3C2)c(S(=O)(=O)c2ccccc2F)c2ccccc21` (stereo not shown) [compound 62], the inhibition constant Ki in experiment [1] was 28 nM. The “selection ratio” value in experiment [2] was about 1.9.

Consider `O=S(=O)(c1cc2ccccc2n1S(=O)(=O)c1ccccn1)N1CCC2(CC1)CC2NS(=O)(=O)C(F)(F)F` (stereo not shown) [compound 41], for which the inhibitory constant (Ki) in experiment [1] (setting [3]) is 0.4 nM. For the same compound, the “selection ratio” value in experiment [2] is recorded as about 3500.

As for `Cn1c(S(=O)(=O)N2CCC3(CC2)CC3NS(=O)(=O)C(F)(F)F)c(S(=O)(=O)c2ccccc2F)c2ccccc21` (stereo not shown) [compound 61], the inhibition constant (Ki) in experiment [1] stood at 3.9 nM. Also, the “selection ratio” value in experiment [2] is about 1200.

As for `CS(=O)(=O)NCC1C2CN(S(=O)(=O)c3ccc(Cl)cc3S(=O)(=O)c3ccccc3F)CC12` (stereo not shown) [compound 9], the inhibition constant (Ki) in experiment [1] (setting [3]) stood at 0.65 nM. For the same compound, the “selection ratio” value in experiment [2] is about 2700.

Take `O=S(=O)(c1ccccn1)c1cc(Cl)ccc1S(=O)(=O)N1CC2C(CNS(=O)(=O)C(F)(F)F)C2C1` (stereo not shown) [compound 6]: in experiment [1] (setting [3]), the inhibition constant (Ki) was determined as 1.5 nM. Besides, the “selection ratio” value in experiment [2] is about 6300.
